Target: T1, purified human lactate dehydrogenase isoform 5 (hLDH5) (Homo sapiens, UniProt P00338)
T1 construct: purchased Lee Biosolution, Inc., St. Louis, MO, USA
Experiment: hLDH5 inhibition assay (pyruvate→lactate, NADH fluorescence)
Assay type: biochemical
Settings: 200 μM pyruvate, 40 μM NADH, phosphate buffer pH 7.4, 15 min incubation
Procedure: LDH assays: The LDH inhibition properties of the selected compounds were evaluated against purified human lactate dehydrogenase isoform 5 (Lee Biosolution, Inc., St. Louis, MO, USA). The “forward” direction (pyruvate→lactate) of the lactate dehydrogenase reaction was conducted, and the kinetic parameters were measured by fluorescence (emission wavelength at 460 nm, excitation wavelength at 340 nm) to monitor the amount of consumed NADH. Assays were carried out in wells containing 200 μL of a reagent solution dissolved in 100 mM phosphate buffer (pH = 7.4). For the IC50 calculations of the compounds, seven different concentrations (in duplicate for each concentration) of the isolated compounds were used to produce the concentration-response curve. All of the compounds were tested in the presence of 200 μM pyruvate and 40 μM NADH. Any background fluorescence likelihood of the tested samples, or NADH fluorescence quenching, was subtracted. In addition to the sample test wells, maximum and minimum controls were also included in each plate. After 15 min of incubation, the final measurements were carried out by using a Victor X3 Microplates Reader (PerkinElmer®). IC50 values were produced using GraphPad Prism software.

SMILES	IC50
O=C(O)c1cc2c(C(F)(F)F)cc(-c3ccccc3)cc2n1O [NHI-1]	51.7 ± 4.2 µM
O=C(O)c1ccc(NCCO)cc1 [VS1, 4-((2-Hydroxyethyl)amino)benzoic acid]	> 500 µM
Cc1ccc(S(=O)(=O)Nc2ccc(C(=O)O)cc2)cc1 [VS2, 4-(4-Methylphenylsulfonamido)benzoic acid]	> 500 µM
O=C(O)CN1CC(c2ccccc2)OC1=O (centres unmarked) [VS3, 2-(2-Oxo-5-phenyloxazolidin-3-yl)acetic acid]	> 500 µM
O=C(O)CCCC(=O)Nc1ccccc1 [VS4]	> 500 µM
Cc1ccc(C)c(C(O)C(=O)O)c1 (centres unmarked) [VS5]	> 500 µM
CC(C)C(NC(=O)OCc1ccccc1)C(=O)Nc1ccccc1 (centres unmarked) [VS6]	246 ± 10.8 µM
O=C(O)CCC(=O)c1ccc(F)cc1 [VS7]	> 500 µM
COC(=O)C(NC(=O)c1cc([N+](=O)[O-])cc([N+](=O)[O-])c1)c1ccccc1 (centres unmarked) [VS8]	269 ± 58.1 µM
Cc1ccc(C(N)C(=O)O)cc1 (centres unmarked) [VS10]	> 500 µM
O=c1cc2oc(O)c3cc(O)c(O)c(O)c3c-2oc1=O [galloflavin]	91.7 ± 10.7 µM

System: LDH
Experiment: not given
Design: method as in earlier work
Settings: Table S1, active compounds included in the enriched dataset; LDH inhibitors binding the open conformation in the presence of NADH; cited from earlier work

SMILES	IC50
Cc1nc2ccc(NC(=O)CCNC(=O)CCCc3ccc(CC(C(=O)O)C(=O)O)cc3)cc2s1 [Compound 2]	12.1 µM
C[C@@H](Nc1nc(-c2cc(C(=O)O)ccc2Cl)cnc1N)c1ccccc1 [Compound 3]	0.48 µM
Nc1ccc(C(=O)O)cc1 [Compound 4]	0.75 µM
COC(=O)c1ccc(N)cc1 [Compound 5]	0.71 µM
COC(=O)c1ccc(NCCO)cc1 [Compound 6]	0.65 µM
COC(=O)c1ccc(NS(=O)(=O)c2ccc(C)cc2)cc1 [Compound 7]	7.4 µM
NCC(O)c1ccccc1 (centres unmarked) [Compound 8]	4 µM
O=C1NCC(c2ccccc2)O1 (centres unmarked) [Compound 9]	14 µM
CC(C)(C)OC(=O)CN1CC(c2ccccc2)OC1=O (centres unmarked) [Compound 10]	10 µM
